Measurements reported in patent publication US20060287251A1, “Combination therapy for glycaemic control” (priority 2003, published 2006).

Tests used:
diabetic Zucker rats = test: Dose escalation study with OGTT in fatty Zucker rats after oral administration; type: in vivo, rat
Description: N=30 male Zucker rats (fa/fa), mean age 11 weeks (5-12 weeks), mean body weight 350 g (150-400 g), were purchased from Charles River (Sulzfeld, Germany). After delivery they were kept for >12 weeks until nearly all fatty Zucker rats had the characteristics of manifest diabetes mellitus. A group of N=8 animals were recruited for testing three escalating doses of glutaminyl pyrrolidine vs. placebo (saline). Animals were single-caged under standardized conditions with controlled temperature (22±2° C.) on a 12/12 hours light/dark cycle (light on at 06:00 AM). Sterile standard pelleted chow (ssniff® Soest, Germany) and tap water acidified with HCl were allowed ad libitum. Fatty Zucker rats of 24-31 weeks (mean: 25 weeks) age, adapted to the housing conditions, were well prepared for the study. Catheters were implanted into the carotid artery of fatty Zucker rats under general anaesthesia (i.p. injection of 0.25 ml/kg b.w. Rompun®[2%], BayerVital, Germany and 0.5 ml/kg b.w. Ketamin 10, Atarost GmbH & Co., Twistringen, Germany). The animals were allowed to recover for one week. The catheters were flushed with heparin-saline (100 IU/ml) three times per week.
Placebo (1 ml saline, 0.154 mol/l) or escalating doses of glutaminyl pyrrolidine (5, 15 and 50 mg/kg b.w.) were administered to groups of N=8 fatty Zucker rats. 375 mg of glutaminyl pyrrolidine were dissolved in 1000 μl DMSO (E. Merck, Darmstadt; Germany [Dimethyl sulfoxide p.a.]). 10 mL saline was added and 1 ml aliquots, each containing 34.09 mg of glutaminyl pyrrolidine, were stored at −20° C. For preparation of the test substance, dose dependent aliquots were diluted in saline. After overnight fasting, placebo or test substance were administered to the fatty Zucker rats via feeding tube orally (15 G, 75 mm; Fine Science Tools, Heidelberg, Germany) at −10 min An oral glucose tolerance test (OGTT) with 2 g/kg b.w. glucose (40% solution, B. Braun Melsungen, Melsungen, Germany) was administered at ±O min via a second feeding tube. Venous blood samples from the tail veins were collected at −30 min, −15 min, ±0 min and at 5, 10, 15, 20, 30, 40, 60, 90 and 120 min into 20 lμl glass capillaries, which were placed in standard tubes filled with 1 mL solution for blood glucose measurement. All blood samples were labelled with Code number, Animal Number, Date of sampling and Time of sampling.
Glucose levels were measured using the glucose oxidase procedure (Super G Glucose analyzer; Dr. Müller Gerältebau, Freital, Germany).
Statistical evaluations and graphics were performed with PRISM® 3.02 (GraphPad Software, Inc.). All parameters were analysed in a descriptive manner including mean and SD. […]

porcine DP II = biological target: T1, porcine DP II (Sus scrofa, UniProt A0A5G2QK18); test: Inhibition of DP IV-like enzymes: dipeptidyl peptidase II; type: biochemical; conditions: substrate lysylalanylaminomethylcoumarine, pH 7.6, 30 °C
T1 construct: The enzyme used was purified from porcine kidney; from tissue; host or cells: porcine kidney
T1 sequence (A0A5G2QK18 28-502): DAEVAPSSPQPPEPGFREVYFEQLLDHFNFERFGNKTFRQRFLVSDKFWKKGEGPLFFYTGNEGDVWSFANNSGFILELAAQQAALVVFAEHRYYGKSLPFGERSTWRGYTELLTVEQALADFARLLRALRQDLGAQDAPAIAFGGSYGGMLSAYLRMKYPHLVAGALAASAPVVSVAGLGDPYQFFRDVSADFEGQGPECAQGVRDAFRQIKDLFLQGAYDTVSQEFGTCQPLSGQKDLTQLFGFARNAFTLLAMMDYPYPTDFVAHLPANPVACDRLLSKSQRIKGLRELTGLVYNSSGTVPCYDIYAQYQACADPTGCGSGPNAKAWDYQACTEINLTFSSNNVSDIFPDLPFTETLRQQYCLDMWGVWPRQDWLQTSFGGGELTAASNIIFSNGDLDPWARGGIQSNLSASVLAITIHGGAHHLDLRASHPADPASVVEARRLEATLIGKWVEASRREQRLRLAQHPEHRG
Description: DP II (3.4.14.2) releases N-terminal dipeptides from oligopeptides if the N-terminus is not protonated (McDonald, J. K., Ellis, S. & Reilly, T. J., 1966, J Biol. Chem., 241, 1494-1501). Pro and Ala in P1-position are preferred residues. The enzyme activity is described as DPIV-like activity, but DP II has an acidic pH-optimum. The enzyme used was purified from porcine kidney. 100 μL glutaminyl pyrrolidine or glutaminyl thiazolidine in an concentration range of 1*10^−4M-5*10^−8M were admixed with 100 μL buffer solution (40 mM HEPES, pH 7.6, 0.015% Brij, 1 mM DTT), 50 μL lysylalanylaminomethylcoumarine solution (5 mM) and 20 μl porcine DP II (250 fold diluted in buffer solution). Fluorescence measurement was performed at 30° C. and λexiatation=380 nm, λemission=465 nm for 25 min using a plate reader (HTS7000 plus, Applied Biosystems, Weiterstadt, Germany).

[1] = In vivo inactivation (degradation) after oral administration to Wistar rats, LC/MS; conditions: LC/MS of plasma
Description: Glutaminyl thiazolidine was administered to Wistar rats orally. After application of placebo or glutaminyl thiazolidine, arterial blood samples were taken at 2.5, 5, 7.5, 10, 15, 20, 40, 60 and 120 min from the carotid catheter of the conscious unrestrained rats to determine the formation of degradation products of glutaminyl thiazolidine. For analysis, simple solid phase extraction procedure on C18 cartridges was used to isolate the compounds of interest from the plasma. The extracts were analysed using reversed-phase liquid chromatography on Lichrospher 60 RP Select B column hyphenated with tandem mass spectrometry operating in the APCI positive mode. An internal standard method was used for quantification.

[2] = 5, 15 and 50 mg/kg b.w. oral (dose escalation)

Row | SMILES | glucose tolerance in OGTT (diabetic Zucker rats; 5 mg/kg b.w. oral, OGTT 2 g/kg glucose) | blood glucose levels and glucose tolerance in OGTT (diabetic Zucker rats; 15 mg/kg and 50 mg/kg b.w. oral, OGTT 2 g/kg glucose) | blood glucose levels and glucose tolerance in OGTT (diabetic Zucker rats; [2]) | Ki (porcine DP II) [µM] | degradation product in vivo [1]
1 | NC(=O)CC[C@H](N)C(=O)N1CCCC1 [glutaminyl pyrrolidine] | limited improvement of glucose tolerance | Significant lowering of elevated blood glucose levels and improvement of glucose tolerance | dose dependent lowering of elevated blood glucose levels | 85.2 | pyroglutaminyl pyrrolidine
2 | NC(=O)CC[C@H](N)C(=O)N1CCSC1 [glutaminyl thiazolidine] |  |  | dose dependent lowering of elevated blood glucose levels and improvement of glucose tolerance | 10.7 | pyroglutaminyl thiazolidine
